Measurements reported in patent US20260356826A1, “SALTS OF AMINO QUINAZOLINE DERIVATIVES” (CHIESI FARMACEUTICI S.P.A., priority 2023, published 2026).
In brackets after ≈: the same amount, converted by molar mass. Counter-ions that a name gives are not always drawn.

How the values were obtained:
Format in all cases: physicochemical
[1] = Dynamic vapour sorption (DVS), hygroscopicity
Protocol: Moisture sorption/desorption data were collected on a TA Instruments Vapor Sorption Analyzer Q5000SA.
First step: sorption data was collected in the range 40% to 90% relative humidity (RH).
Second Step: desorption, sorption and desorption data were collected over a range of 0% to 90% RH at 10% RH intervals under a nitrogen purge. Samples were not dried prior to analysis. Equilibrium criteria used for analysis were less than 0.100% weight change in 20 minutes, with a maximum equilibration time of 1 hour if the weight criterion was not met. Data were not corrected for the initial moisture content of the samples. NaBr was used as humidity verification.
Moisture sorption/desorption data were also collected on a ProUmid SnS 23 equipped with a 23 autosampler following Method 1.
In the first step sorption data was collected in the range 0% to 90% RH. Samples were not dried prior to analysis.
In the second Step desorption, sorption and desorption data were collected over a range of 0% to 90% (RH) at 10% RH intervals under a nitrogen purge. Data were not corrected for the initial moisture content of the samples.

[2] = Comparative stability at 40 °C and 75% RH at open conditions (UPLC/UV and XRPD); details: 40 °C/75% RH open; for % area main peak (LC/UV): 0 days
Protocol: In a second experiment, approximately 100 mg of compound A mesylate salt Form 2 according to Example 2, free base Form A according to Example 1 and esylate salt Form 1 according to Example 6 were stored in three open amber glass vials covered with filter paper to simulate open conditions. The samples were stored in a stability chamber at 75% RH and 40 °C to compare their stability. At the time points 0, 28, 56, 84 days the corresponding samples were removed from the stability chambers. After conditioning at RT, the samples were analyzed by UPLC/UV and XRPD.

[3] = Dissolution in Fasted State Simulated Gastric Fluid (FaSSGF), manual experiment, 37 °C; details: for Solubility: 37 °C
Protocol: The dissolution in Fasted State Simulated Gastric Fluid (FaSSGF) of mesylate salt Form 2 of the compound A of Example 2 and esylate salt Form 1 of Example 6 in comparison with the free base Form A and with other salts was tested by means of manual experiment. The medium for simulated oral fluids was FaSSGF obtained from Biorelevant.com Ltd. The experiments were conducted for 60 minutes at 37 °C.
General preparation of salts: in a round-bottomed flask, 200 mg of compound A free base Form A according to Example 1 (0.52 mmol) were suspended in 5 ml of solvent and stirred at RT. Acetone was employed for bromide, ethanedisulfonate, malonate, sulfate, saccharinate, tosylate, orotate, besylate, hemisulfate, phosphate and tartrate salts; water was employed for chloride salt; ethyl formate was employed for maleate, oxalate, gentisicate, fumarate and mandelate salts; tetrahydrofuran was employed for camphorsulfonate and pamoate salts; isopropyl acetate was employed for 4-hydroxybenzoate and methanol for camphorate salt. The corresponding acid was added under stirring in equimolar amount (except for hemisulfate, added in 0.5 molar amount). After 1 hour the crystalline solid was isolated by filtration, washed with the corresponding solvent (2×1 ml) and dried under nitrogen for 2 hours.
The quantification of the dissolved amount was done by LC/UV system at different checkpoints up to 60 minutes. The saturation solution concentration was around 25-30 mg/ml. […] In a second experiment, the quantification was repeated with saturation solution concentration 170 mg/ml for the mesylate salt Form 2 and 100 mg/ml for the esylate salt Form 1. The results are reported in tables 8A, 8B, 8C, 8D and FIG. 28.

[4] = Two-sector dissolution study (FaSSGF then FaSSIF), parachute effect; details: for Estimated supersaturation duration (parachute effect): second experiment, pH adjusted to 6.5 after FaSSIF addition; for Time of precipitation: protocol of the second experiment
Protocol: The dissolution behaviour of mesylate salt Form 2 of compound A was studied in a two-sector model in comparison with free base Form A to evaluate a possible “spring-parachute effect”.
The parachute effect is observable in two-sector dissolution studies. A test compound is incubated with FaSSGF and its concentration is monitored over time. FaSSIF is then added to the solution whilst continuing the monitoring. The period of time in which the test compound remains in solution without or before precipitating refers to the supersaturation time and represents the parachute effect.
The experiment was conducted using DISS Profiler 6 Channel Pion. The free base Form A and mesylate salt Form 2 of compound A were each incubated in 8 ml of FaSSGF (pH 1.6) for 20 minutes at the concentration of 350 mg/250 ml. 16 ml of FaSSIF concentrated 1.5× (pH 6.5) was added with an incubation time of 180 minutes. The resulting target pH should be approximately 5-6. The experiment was conducted at 37 °C. The entire dissolution profile was monitored until the end of the experiment to evaluate a possible parachute effect, its duration and to evaluate the maximum solubility reached after the addition of FaSSIF.
A second experiment was conducted, with an additional step of adjusting the pH to 6.5 after FaSSIF addition. Both free base Form A and mesylate salt Form 2 of compound A were tested.
A third experiment was conducted on esylate salt Form 1 of compound A, using the same protocol of the second experiment, with free base Form A and mesylate salt Form 2 of compound A as controls. The experiment was aimed at evaluating comparatively a possible parachute effect of the esylate salt and its duration. Precipitation of the free base was observed after roughly 20 minutes, while precipitation of the esylate salt and mesylate salt were observed after 30 and 40 minutes respectively.

SMILES: COc1cc(-c2ccc(F)cn2)cc2c(N[C@H](C)c3noc(C)n3)ncnc12 [free base Form A, (R)-6-(5-fluoropyridin-2-yl)-8-methoxy-N-(1-(5-methyl-1,2,4-oxadiazol-3-yl)ethyl)quinazolin-4-amine]
- Total weight gain (hygroscopicity) ([1]; between 2.5% and 90% RH): about 0.249 wt %
- Hygroscopicity ([1]; between 20% and 80% RH): No hygroscopicity was noted
- Total water uptake ([1]; between 20% and 80% RH): 0.249%
- % area main peak (LC/UV) [2]: 99.8 % area
- Solubility ([3]; first experiment (saturation conc. around 25-30 mg/ml), 5 min): 6.87 mg/mL (≈ 18.1 mM)
- Solubility ([3]; first experiment, 10 min): 7.01 mg/mL (≈ 18.4 mM)
- Solubility ([3]; first experiment, 20 min): 6.84 mg/mL (≈ 18 mM)
- Solubility ([3]; first experiment, 40 min): 6.89 mg/mL (≈ 18.1 mM)
- Solubility ([3]; first experiment, 60 min): 6.89 mg/mL (≈ 18.1 mM)
- Solubility ([3]; second experiment (saturation conc. 170 mg/ml mesylate, 100 mg/ml esylate), 0 min): 0.63 mg/mL (≈ 1.66 mM)
- Solubility ([3]; second experiment, 15 min): 12.77 mg/mL (≈ 33.6 mM)
- Solubility ([3]; second experiment, 30 min): 11.89 mg/mL (≈ 31.3 mM)
- Solubility ([3]; second experiment, 60 min): 13.47 mg/mL (≈ 35.4 mM)
- pH after the addition of FaSSIF ([4]; first experiment): 5.8
- Precipitation start after FaSSIF addition ([4]; first experiment, no pH adjustment, 37 °C): about 10 minutes
- Estimated supersaturation duration (parachute effect) [4]: 8 min
- Time of precipitation ([4]; third experiment): roughly 20 minutes

SMILES: COc1cc(-c2ccc(F)cn2)cc2c(N[C@H](C)c3noc(C)n3)ncnc12 [mesylate salt Form 2, (R)-6-(5-fluoropyridin-2-yl)-8-methoxy-N-(1-(5-methyl-1,2,4-oxadiazol-3-yl)ethyl)quinazolin-4-amine]
- Total weight gain (hygroscopicity) ([1]; between 0% and 90% RH): about 1.049 wt %
- Stability ([2]; 84 days): surprisingly good stability during stressed storage
- % area main peak (LC/UV) [2]: 99.9 % area
- Solubility ([3]; first experiment (saturation conc. around 25-30 mg/ml), 5 min, listed as mesylate Form 2, 5 min): 31.44 mg/mL
- Solubility ([3]; first experiment, 10 min, listed as mesylate Form 2, 10 min): 31.92 mg/mL
- Solubility ([3]; first experiment, 20 min, listed as mesylate Form 2, 20 min): 31.65 mg/mL
- Solubility ([3]; first experiment, 40 min, listed as mesylate Form 2, 40 min): 31.16 mg/mL
- Solubility ([3]; first experiment, 60 min): ≥ 25 mg/mL
- Solubility ([3]; first experiment, 60 min, listed as mesylate Form 2, 60 min): 31.30 mg/mL
- Solubility ([3]; second experiment (saturation conc. 170 mg/ml mesylate, 100 mg/ml esylate), 0 min, listed as mesylate Form 2, 0 min): 19.25 mg/mL
- Solubility ([3]; second experiment, 15 min, listed as mesylate Form 2, 15 min): 151.67 mg/mL
- Solubility ([3]; second experiment, 30 min, listed as mesylate Form 2, 30 min): 159.96 mg/mL
- Solubility ([3]; second experiment, 60 min, listed as mesylate Form 2, 60 min): 169.82 mg/mL
- Solubility compared to free base Form A ([3]; 60 minutes): consistently higher solubility than the free base Form A during the 60 minutes time
- Dissolution ([3]; first experiment, saturation conc. around 25-30 mg/ml): completely dissolved
- pH measured at the end of the experiment ([4]; first experiment): 4.5
- Precipitation after FaSSIF addition ([4]; first experiment, no pH adjustment): No precipitation was observed
- Estimated supersaturation duration (parachute effect) [4]: 14 min
- Duration of the parachute effect compared to free base Form A ([4]; third experiment): longer duration of the parachute effect
- Time of precipitation ([4]; third experiment): 40 min
